Experimental data taken from ChEMBL document CHEMBL5120971, “Network Pharmacology Research and Dual-omic Analyses Reveal the Molecular Mechanism of Natural Product Nodosin Inhibiting Muscle-Invasive Bladder Cancer in Vitro and in Vivo” (J Nat Prod, 2022).
Activity calls are given as the source filed them. The calls are words filed in the database; no cut-off is given here.

Legend:
T-24 [1] = test: Cytotoxicity against human T24 cells assessed as reduction in cell growth by CCK8 assay; assay type: functional, cell-based
T-24 [2] = test: Induction of morphological changes in human T24 cells assessed as reduction in cell adherence at 4 to 12 uM measured after 48 hrs by microscopy; assay type: functional, cell-based; conditions: dose 4-12 µM
T-24 [3] = test: Inhibition of colony formation in human T24 cells at 1 to 12 uM measured after 12 days by crystal violet staining based microscopy; assay type: functional, cell-based; conditions: dose 1-12 µM, time 12.0 day
T-24 [4] = test: Antiproliferative activity against human T24 cells assessed as reduction in Ki67 expression at 4 to 12 uM measured after 24 hrs by DAPI staining based immunofluorescence analysis; assay type: functional, cell-based; conditions: dose 4-12 µM
T-24 [5] = test: Effect on CDKN3 expression in human T24 cells at 6 uM measured after 24 to 30 hrs by proteomic analysis; assay type: functional, cell-based; conditions: time 24-30 hrs
T-24 [6] = test: Effect on E2F6 expression in human T24 cells at 6 uM measured after 24 to 30 hrs by proteomic analysis; assay type: functional, cell-based; conditions: time 24-30 hrs
T-24 [7] = test: Effect on HLTF expression in human T24 cells at 6 uM measured after 24 to 30 hrs by proteomic analysis; assay type: functional, cell-based; conditions: time 24-30 hrs
T-24 [8] = test: Effect on NEK6 expression in human T24 cells at 6 uM measured after 24 to 30 hrs by proteomic analysis; assay type: functional, cell-based; conditions: time 24-30 hrs
T-24 [9] = test: Induction of apoptosis in human T24 cells assessed as viable cells at 4 uM measured after 48 hrs by Annexin V-FITC/propidium iodide staining based flow cytometry (reference value: 97.49%); assay type: functional; conditions: read-out: Activity
T-24 [10] = test: Induction of apoptosis in human T24 cells assessed as necrotic cells at 4 uM measured after 48 hrs by Annexin V-FITC/propidium iodide staining based flow cytometry (reference value: 0.57%); assay type: functional
T-24 [11] = test: Induction of apoptosis in human T24 cells assessed as up regulation of SQSTM1 gene expression at 6 uM measured after 12 to 18 hrs by transcriptome analysis; assay type: functional, cell-based; conditions: time 12-18 hrs
T-24 [12] = test: Induction of autophagy in human T24 cells assessed as up regulation of MAP1LC3B gene expression at 6 uM measured after 12 to 18 hrs by transcriptome analysis; assay type: functional, cell-based; conditions: time 12-18 hrs
T-24 [13] = test: Up regulation of AIFM2 gene expression in human T24 cells at 6 uM measured after 12 to 18 hrs by transcriptome analysis; assay type: functional, cell-based; conditions: time 12-18 hrs
T-24 [14] = test: Antitumor activity against human T24 cells xenografted in BALB/c mouse assessed as reduction in tumor weight at 2 mg/kg, ip administered at 2 days interval; assay type: functional, organism-based
T-24 [15] = test: Antitumor activity against human T24 cells xenografted in BALB/c mouse assessed as reduction in Ki67 expression at 2 mg/kg, ip administered at 2 days interval by immunohistochemical analysis; assay type: functional, organism-based

`C=C1C(=O)[C@]23C[C@H]1C[C@@H](O)[C@H]2[C@@]12CO[C@@H](O)[C@@H]1C(C)(C)CC[C@@H]2OC3=O` [NODOSIN] was tested, and the IC50 (T-24 [1]) was 4.91 µM, the Activity (T-24 [1]; DDE = dose-dependent effect) was “Dde” and the Activity (T-24 [2]) was “Active”. For the same compound, the inhibition (T-24 [3]) was “Active”, the Activity (T-24 [4]) was “Active” and the Activity (T-24 [5]) was “Active”. The Activity (T-24 [6]) was “Active”, the Activity (T-24 [7]) was “Active” and the Activity (T-24 [8]) was “Active”. For the same compound, the viability at 4 µM (T-24 [9]) was 96.1%, the Activity (T-24 [10]) was 0.2% and the Activity (T-24 [11]) was “Active”. The Activity (T-24 [12]) was “Active”, the Activity (T-24 [13]) was “Active” and the Activity (T-24 [14]) was “Active”. For the same compound, the Activity (T-24 [15]) was “Active”.
